These results are taken from ChEMBL document CHEMBL5465560, “Selectivity Literature for EUbOPEN Chemogenomic Library” (2024).

The target in assay [1] is Ribosomal protein S6 kinase alpha-5 (Homo sapiens) (UniProt O75582). The settings on record: at 10 µM.
In assay [2] the target is T1, Serine/threonine-protein kinase BRSK1 (Homo sapiens) (UniProt Q8TDC3).
T1 sequence (whole entry): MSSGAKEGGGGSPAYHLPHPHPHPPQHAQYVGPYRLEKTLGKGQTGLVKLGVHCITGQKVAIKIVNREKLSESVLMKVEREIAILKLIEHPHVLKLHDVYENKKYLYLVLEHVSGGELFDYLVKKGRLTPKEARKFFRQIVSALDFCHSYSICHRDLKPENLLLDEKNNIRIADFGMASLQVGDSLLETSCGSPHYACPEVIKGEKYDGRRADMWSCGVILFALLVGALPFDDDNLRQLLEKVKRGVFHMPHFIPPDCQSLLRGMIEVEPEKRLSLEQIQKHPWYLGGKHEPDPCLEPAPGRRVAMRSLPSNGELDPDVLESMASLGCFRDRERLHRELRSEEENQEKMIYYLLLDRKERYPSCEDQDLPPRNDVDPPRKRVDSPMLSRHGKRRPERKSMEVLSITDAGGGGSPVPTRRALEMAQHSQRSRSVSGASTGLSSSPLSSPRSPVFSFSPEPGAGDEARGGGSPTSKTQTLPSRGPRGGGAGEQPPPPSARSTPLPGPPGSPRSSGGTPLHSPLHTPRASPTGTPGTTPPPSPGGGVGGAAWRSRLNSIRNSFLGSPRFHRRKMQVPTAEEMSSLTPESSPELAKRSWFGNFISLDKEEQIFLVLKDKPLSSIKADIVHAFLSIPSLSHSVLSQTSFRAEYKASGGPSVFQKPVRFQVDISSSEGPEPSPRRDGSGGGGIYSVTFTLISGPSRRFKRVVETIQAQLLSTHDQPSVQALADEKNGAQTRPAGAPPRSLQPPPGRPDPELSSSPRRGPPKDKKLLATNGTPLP
Briefly: Selectivity interaction (KinomeScan (DiscoverX)) EUB0001079a BRSK1. Conditions: at 1 µM.

Assay [3] concerns the target T2, Serine/threonine-protein kinase tousled-like 1 (Homo sapiens) (UniProt Q9UKI8).
T2 sequence (whole entry): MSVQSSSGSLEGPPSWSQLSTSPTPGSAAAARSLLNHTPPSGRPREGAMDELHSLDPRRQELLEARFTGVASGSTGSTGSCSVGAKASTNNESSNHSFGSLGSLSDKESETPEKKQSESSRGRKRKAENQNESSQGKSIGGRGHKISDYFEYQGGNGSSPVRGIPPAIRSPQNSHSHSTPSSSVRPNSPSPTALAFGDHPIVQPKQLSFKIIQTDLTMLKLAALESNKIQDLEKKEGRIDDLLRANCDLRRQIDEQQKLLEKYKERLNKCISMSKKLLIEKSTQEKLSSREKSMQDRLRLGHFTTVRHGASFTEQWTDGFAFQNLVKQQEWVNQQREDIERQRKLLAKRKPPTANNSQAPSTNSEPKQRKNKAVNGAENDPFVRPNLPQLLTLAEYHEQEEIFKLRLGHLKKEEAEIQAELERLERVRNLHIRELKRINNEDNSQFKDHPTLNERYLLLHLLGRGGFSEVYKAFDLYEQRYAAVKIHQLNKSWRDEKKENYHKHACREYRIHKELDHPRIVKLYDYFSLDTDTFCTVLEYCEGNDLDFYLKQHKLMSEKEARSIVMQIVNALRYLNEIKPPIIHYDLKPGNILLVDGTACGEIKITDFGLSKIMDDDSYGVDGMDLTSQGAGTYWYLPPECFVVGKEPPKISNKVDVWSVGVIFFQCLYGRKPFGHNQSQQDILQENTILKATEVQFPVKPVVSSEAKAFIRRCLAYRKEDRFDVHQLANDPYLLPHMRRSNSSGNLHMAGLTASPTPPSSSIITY
Briefly: Selectivity interaction (KinomeScan (DiscoverX)) EUB0001049a TLK1. The settings on record: at 1 µM.

For assay [4], the target named is Mitogen-activated protein kinase 9 (Homo sapiens, UniProt P45984). The assay can be described thus: Selectivity interaction (KinomeScan (DiscoverX)) EUB0000695a MAPK9. Conditions: at 100 nM.
The target in assay [5] is Tyrosine-protein kinase JAK2 (Homo sapiens, UniProt O60674). Briefly: Selectivity interaction (Kinase panel (Z-LYTE Assay)) EUB0001632a JAK2. Conditions: at 10 µM.
Assay [6] addresses Tyrosine-protein kinase Yes (Homo sapiens) (UniProt P07947). Briefly: Selectivity interaction (SelectScreen profiling (Invitrogen)) EUB0000607a YES1. The settings on record: at 2 µM.
In a further assay the target is Ephrin type-A receptor 4 (Homo sapiens, UniProt P54764). Briefly: Selectivity interaction (KinomeScan (DiscoverX)) EUB0000229b EPHA4. The settings on record: at 10 µM.
Assay [7] has as its target T3, Inhibitor of nuclear factor kappa-B kinase subunit beta (Homo sapiens) (UniProt O14920).
T3 sequence (whole entry): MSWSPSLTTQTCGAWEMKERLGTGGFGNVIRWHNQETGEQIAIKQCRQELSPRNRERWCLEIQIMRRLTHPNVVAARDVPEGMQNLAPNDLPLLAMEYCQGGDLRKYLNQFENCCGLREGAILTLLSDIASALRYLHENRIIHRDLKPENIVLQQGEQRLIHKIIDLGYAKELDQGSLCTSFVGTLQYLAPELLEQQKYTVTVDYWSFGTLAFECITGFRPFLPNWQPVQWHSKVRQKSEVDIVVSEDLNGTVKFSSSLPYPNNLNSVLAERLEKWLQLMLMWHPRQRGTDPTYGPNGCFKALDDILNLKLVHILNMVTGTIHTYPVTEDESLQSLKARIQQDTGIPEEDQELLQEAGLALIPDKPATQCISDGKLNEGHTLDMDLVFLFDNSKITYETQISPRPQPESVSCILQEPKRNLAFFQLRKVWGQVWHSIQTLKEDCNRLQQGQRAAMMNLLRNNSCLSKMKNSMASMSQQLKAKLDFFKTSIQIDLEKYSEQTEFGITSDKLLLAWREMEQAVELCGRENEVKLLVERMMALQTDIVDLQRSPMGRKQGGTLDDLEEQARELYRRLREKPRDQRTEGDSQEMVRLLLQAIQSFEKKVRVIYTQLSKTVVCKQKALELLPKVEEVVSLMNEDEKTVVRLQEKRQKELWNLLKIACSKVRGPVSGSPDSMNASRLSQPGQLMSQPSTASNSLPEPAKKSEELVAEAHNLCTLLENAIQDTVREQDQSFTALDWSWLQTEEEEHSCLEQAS
Briefly: Selectivity interaction (KinomeScan (DiscoverX)) EUB0000595a IKBKB. The settings on record: at 10 µM.

Sequence of Tyrosine-protein kinase Yes (Homo sapiens) (P07947 2-543 limits assumed): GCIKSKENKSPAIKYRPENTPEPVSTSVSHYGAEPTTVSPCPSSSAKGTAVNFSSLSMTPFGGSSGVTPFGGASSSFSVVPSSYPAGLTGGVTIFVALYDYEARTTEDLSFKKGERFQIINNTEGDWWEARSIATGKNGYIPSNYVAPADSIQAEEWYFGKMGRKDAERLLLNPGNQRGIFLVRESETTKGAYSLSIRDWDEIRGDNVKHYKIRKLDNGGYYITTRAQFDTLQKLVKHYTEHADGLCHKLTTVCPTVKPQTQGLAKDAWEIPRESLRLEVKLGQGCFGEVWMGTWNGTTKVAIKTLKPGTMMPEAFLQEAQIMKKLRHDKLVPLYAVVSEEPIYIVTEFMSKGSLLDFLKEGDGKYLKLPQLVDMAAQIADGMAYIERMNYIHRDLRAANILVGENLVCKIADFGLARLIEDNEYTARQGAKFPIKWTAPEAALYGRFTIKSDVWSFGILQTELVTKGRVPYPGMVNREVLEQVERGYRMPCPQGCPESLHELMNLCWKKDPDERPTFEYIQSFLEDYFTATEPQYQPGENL
Sequence of Ribosomal protein S6 kinase alpha-5 (Homo sapiens) (O75582 whole entry, looked up): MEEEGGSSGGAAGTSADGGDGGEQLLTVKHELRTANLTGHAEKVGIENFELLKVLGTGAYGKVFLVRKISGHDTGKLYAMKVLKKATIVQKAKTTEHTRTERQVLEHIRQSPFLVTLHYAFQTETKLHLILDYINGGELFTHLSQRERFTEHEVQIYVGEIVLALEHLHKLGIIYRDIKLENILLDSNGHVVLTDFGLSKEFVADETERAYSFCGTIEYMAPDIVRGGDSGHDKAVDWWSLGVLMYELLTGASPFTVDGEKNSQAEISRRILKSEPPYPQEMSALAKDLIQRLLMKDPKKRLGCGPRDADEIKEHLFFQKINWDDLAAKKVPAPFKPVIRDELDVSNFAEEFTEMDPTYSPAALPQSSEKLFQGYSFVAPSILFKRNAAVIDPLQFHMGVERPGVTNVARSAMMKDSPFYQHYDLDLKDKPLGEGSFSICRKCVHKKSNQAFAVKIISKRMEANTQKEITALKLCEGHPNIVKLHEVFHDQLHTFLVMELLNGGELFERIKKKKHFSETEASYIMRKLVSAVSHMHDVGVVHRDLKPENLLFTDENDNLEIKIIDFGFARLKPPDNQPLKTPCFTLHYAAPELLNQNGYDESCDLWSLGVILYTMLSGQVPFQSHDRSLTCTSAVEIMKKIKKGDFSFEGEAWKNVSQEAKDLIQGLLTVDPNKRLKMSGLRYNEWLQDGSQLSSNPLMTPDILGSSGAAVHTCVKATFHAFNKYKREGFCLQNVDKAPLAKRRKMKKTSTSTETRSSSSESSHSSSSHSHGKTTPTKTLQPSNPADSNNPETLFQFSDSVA
Sequence of Ephrin type-A receptor 4 (P54764 whole entry): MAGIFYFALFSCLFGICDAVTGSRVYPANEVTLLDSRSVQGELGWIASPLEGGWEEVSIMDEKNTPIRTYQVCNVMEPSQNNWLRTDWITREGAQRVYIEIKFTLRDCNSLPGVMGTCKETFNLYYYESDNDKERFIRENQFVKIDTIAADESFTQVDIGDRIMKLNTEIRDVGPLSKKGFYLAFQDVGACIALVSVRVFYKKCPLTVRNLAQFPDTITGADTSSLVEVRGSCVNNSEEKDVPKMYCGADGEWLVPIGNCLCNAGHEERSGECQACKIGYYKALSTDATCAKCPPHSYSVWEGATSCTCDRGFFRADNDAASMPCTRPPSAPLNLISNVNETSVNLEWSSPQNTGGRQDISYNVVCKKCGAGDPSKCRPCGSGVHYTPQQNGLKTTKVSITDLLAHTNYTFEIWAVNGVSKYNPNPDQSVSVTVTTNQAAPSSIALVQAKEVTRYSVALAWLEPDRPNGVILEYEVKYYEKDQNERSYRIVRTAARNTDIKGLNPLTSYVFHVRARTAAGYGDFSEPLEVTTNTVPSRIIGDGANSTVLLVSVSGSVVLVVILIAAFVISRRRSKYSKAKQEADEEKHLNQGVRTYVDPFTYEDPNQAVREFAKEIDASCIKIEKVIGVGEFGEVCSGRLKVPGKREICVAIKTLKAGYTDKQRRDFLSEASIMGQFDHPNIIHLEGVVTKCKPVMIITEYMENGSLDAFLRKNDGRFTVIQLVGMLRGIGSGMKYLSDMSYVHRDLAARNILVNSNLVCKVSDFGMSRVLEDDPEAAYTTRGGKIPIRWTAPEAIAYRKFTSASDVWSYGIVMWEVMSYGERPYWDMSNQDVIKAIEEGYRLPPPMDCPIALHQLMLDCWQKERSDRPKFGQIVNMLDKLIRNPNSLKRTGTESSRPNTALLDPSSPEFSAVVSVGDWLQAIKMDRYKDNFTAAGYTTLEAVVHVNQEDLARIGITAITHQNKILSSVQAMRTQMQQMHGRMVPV
Sequence of Mitogen-activated protein kinase 9 (P45984 whole entry, looked up): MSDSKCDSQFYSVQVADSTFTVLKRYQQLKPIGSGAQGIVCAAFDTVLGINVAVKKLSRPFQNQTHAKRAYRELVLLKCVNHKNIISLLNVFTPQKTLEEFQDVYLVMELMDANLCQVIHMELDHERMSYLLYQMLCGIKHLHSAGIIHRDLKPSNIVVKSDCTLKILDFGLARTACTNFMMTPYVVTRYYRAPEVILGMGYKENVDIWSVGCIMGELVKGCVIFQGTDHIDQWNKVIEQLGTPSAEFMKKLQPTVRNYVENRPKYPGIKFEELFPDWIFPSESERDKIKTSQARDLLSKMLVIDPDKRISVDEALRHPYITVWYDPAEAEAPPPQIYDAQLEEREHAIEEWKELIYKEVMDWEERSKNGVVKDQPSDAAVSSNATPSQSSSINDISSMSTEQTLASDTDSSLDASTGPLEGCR
Sequence of Tyrosine-protein kinase JAK2 (O60674 whole entry): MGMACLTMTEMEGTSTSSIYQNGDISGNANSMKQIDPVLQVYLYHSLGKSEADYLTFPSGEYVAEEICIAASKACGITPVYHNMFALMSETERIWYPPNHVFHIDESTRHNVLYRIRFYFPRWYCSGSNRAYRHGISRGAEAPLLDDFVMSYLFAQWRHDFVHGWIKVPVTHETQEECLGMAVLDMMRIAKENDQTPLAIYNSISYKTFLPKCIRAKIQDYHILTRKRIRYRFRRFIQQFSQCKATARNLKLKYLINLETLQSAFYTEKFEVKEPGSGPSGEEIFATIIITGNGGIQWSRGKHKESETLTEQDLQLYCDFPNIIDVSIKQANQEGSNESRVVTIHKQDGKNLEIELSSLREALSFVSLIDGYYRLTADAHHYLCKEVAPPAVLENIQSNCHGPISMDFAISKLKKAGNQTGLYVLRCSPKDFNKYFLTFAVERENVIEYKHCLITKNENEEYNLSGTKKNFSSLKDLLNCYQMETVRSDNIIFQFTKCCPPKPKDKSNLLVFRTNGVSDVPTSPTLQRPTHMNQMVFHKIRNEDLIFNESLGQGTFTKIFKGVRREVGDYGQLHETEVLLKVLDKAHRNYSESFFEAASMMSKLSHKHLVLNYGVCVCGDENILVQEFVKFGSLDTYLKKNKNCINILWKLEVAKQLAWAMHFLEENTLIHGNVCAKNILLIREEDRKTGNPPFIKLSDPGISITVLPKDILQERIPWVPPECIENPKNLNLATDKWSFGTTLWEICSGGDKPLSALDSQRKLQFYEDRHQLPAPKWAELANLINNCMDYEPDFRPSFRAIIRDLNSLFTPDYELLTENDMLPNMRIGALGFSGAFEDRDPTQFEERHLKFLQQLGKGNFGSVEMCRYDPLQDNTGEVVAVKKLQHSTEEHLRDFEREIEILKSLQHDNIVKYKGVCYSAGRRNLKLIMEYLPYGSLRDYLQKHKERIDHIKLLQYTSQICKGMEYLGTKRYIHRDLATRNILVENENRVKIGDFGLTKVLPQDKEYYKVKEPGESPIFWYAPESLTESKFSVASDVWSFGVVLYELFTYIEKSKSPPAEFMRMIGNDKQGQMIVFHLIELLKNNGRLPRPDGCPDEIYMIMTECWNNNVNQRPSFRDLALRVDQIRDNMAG

Turning to `CCN(CC)CCCCNc1ncc2cc(-c3cc(OC)cc(OC)c3)c(NC(=O)NC(C)(C)C)nc2n1`, the % of control in assay [1] came out at 100%. `Nc1cnc(N2CCc3cc(S(=O)(=O)Nc4c(F)cc(Cl)cc4F)cc(N4CCCC4=O)c32)nc1` [TP-020n] yielded a % of control in assay [2] of 100%. As for `COc1cc(Nc2nc(C)cc(-c3cnn4nc(OC)ccc34)n2)cc(C(F)(F)F)c1`, the % of control in assay [3] turned out to be 100%. `Cc1cc(F)c(C(=O)Nc2cccc(-c3nncn3C(C)C)n2)cc1-n1cnc(C2CC2)c1` yielded a % of control in assay [4] of 78%.

For the molecule `Cn1cc(-n2cnc3c(NCc4nc5cc(Cl)c(Cl)cc5[nH]4)nc(N4CCOCC4)nc32)cn1`, the % of control in assay [5] came out at 3.68%. `CNC(=O)Nc1ccc(-c2nc(N3CC4CCC(C3)O4)c3cnn(C4CCC5(CC4)OCCO5)c3n2)cc1` had a % of inhibition in assay [6] of 2%.

Regarding `COc1cc(N(C)c2ccnc3ccc(C(F)(F)F)cc23)cc(OC)c1OC`, on Ephrin type-A receptor 4, the % binding came out at 100%. Turning to `COCC(=O)NC/C=C/c1ccc2ncnc(Nc3ccc(Oc4ccc(C)nc4)c(C)c3)c2c1` [CP-724714], the % of control in assay [7] was found to be 100%.
